Source: PubChem BioAssay AID330 (DTP/NCI, 2004)
Where “and” joins values, the source holds several entries; their conditions need not be identical. Equal values may be shown once. Toxic doses and inconclusive results are not listed.

Tested on: P388 leukemia ip, CD2F1 mice, survival T/C
Assay: NCI In Vivo Anticancer Drug Screen. Data for tumor model P388 Leukemia (intraperitoneal) in CD2F1 (CDF1) mice
Settings: endpoint: median survival time, higher = longer survival
Procedure, shortened: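 Mice carrying the transplanted tumor received test compound or vehicle. Survival was recorded in each group, and the value is the treated-group measurement divided by that of the vehicle-treated control group.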

[1] = dose: 50.0 mg/kg/injection, schedule: Q01DX009 (ip), vehicle: Klucel (hydroxypropylcellulose) (HPC)
[2] = dose: 100.0 mg/kg/injection, schedule: Q01DX009 (ip), vehicle: Klucel (hydroxypropylcellulose) (HPC)
[3] = dose: 200.0 mg/kg/injection, schedule: Q01DX009 (ip), vehicle: Klucel (hydroxypropylcellulose) (HPC)
[4] = dose: 60.0 mg/kg/injection, schedule: Q01DX005 (ip), vehicle: Klucel (hydroxypropylcellulose) (HPC)
[5] = dose: 120.0 mg/kg/injection, schedule: Q01DX005 (ip), vehicle: Klucel (hydroxypropylcellulose) (HPC)
[6] = dose: 240.0 mg/kg/injection, schedule: Q01DX005 (ip), vehicle: Klucel (hydroxypropylcellulose) (HPC)
[7] = dose: 100.0 mg/kg/injection, schedule: Q04DX003 (ip), vehicle: saline with Tween-80
[8] = dose: 200.0 mg/kg/injection, schedule: Q04DX003 (ip), vehicle: saline with Tween-80
[9] = dose: 400.0 mg/kg/injection, schedule: Q04DX003 (ip), vehicle: saline with Tween-80
[10] = dose: 50.0 mg/kg/injection, schedule: Q01DX009 (ip), vehicle: saline with Tween-80

## CC1C(c2ccccc2)NC(c2ccccc2)CC1(N)C#N (stereo not given)
dose: 50.0 mg/kg/injection, schedule: Q01DX005 (ip), vehicle: Klucel (hydroxypropylcellulose) (HPC)
  T/C: 95 % of control
dose: 100.0 mg/kg/injection, schedule: Q01DX005 (ip), vehicle: Klucel (hydroxypropylcellulose) (HPC)
  T/C: 95 % of control
dose: 200.0 mg/kg/injection, schedule: Q01DX005 (ip), vehicle: Klucel (hydroxypropylcellulose) (HPC)
  T/C: 93 % of control

## COC(=O)NC(=O)CCC(=O)O
dose: 12.5 mg/kg/injection, schedule: Q01DX009 (ip), vehicle: saline
  T/C: 104 % of control
dose: 25.0 mg/kg/injection, schedule: Q01DX009 (ip), vehicle: saline
  T/C: 97 % of control
dose: 50.0 mg/kg/injection, schedule: Q01DX009 (ip), vehicle: saline
  T/C: 100 % of control and 103 % of control

## Nc1nc(SCc2ccccc2)sc1C(=O)N(Cc1ccccc1)Cc1ccccc1
[1]
  T/C: 98 % of control
[2]
  T/C: 100 % of control
[3]
  T/C: 100 % of control

## CCNS(=O)(=O)c1ccc2c(c1)nc(SC)n2CC
[4]
  T/C: 104 % of control
[5]
  T/C: 105 % of control
[6]
  T/C: 104 % of control

## CC(O)CCC(=O)c1nc2ccccc2s1 (stereo not given)
[4]
  T/C: 95 % of control
[5]
  T/C: 100 % of control
[6]
  T/C: 98 % of control

## CN/N=C/c1ccc(O)c(OC)c1
[7]
  T/C: 100 % of control
[8]
  T/C: 100 % of control
[9]
  T/C: 100 % of control

## Cc1ccc(S(=O)(=O)O/N=C(/CC/C(=N\OS(=O)(=O)c2ccc(C)cc2)c2ccccc2)c2ccccc2)cc1
dose: 100.0 mg/kg/injection, schedule: Q04DX002 (ip), vehicle: saline with Tween-80
  T/C: 95 % of control
dose: 200.0 mg/kg/injection, schedule: Q04DX002 (ip), vehicle: saline with Tween-80
  T/C: 115 % of control
dose: 400.0 mg/kg/injection, schedule: Q04DX002 (ip), vehicle: saline with Tween-80
  T/C: 96 % of control

## Cc1nnc(C)s1
[1]
  T/C: 102 % of control and 106 % of control and 98 % of control
[2]
  T/C: 114 % of control and 96 % of control and 97 % of control
[3]
  T/C: 101 % of control and 106 % of control
dose: 600.0 mg/kg/injection, schedule: Q01DX009 (ip), vehicle: Klucel (hydroxypropylcellulose) (HPC)
  T/C: 106 % of control

## CCc1nc(-c2ccccc2)c(-c2ccccc2)[nH]1
[7]
  T/C: 90 % of control
[8]
  T/C: 90 % of control
[9]
  T/C: 95 % of control

## NC(CCSCc1ccc(N(CCCl)CCCl)cc1)C(=O)O (stereo not given)
dose: 3.13 mg/kg/injection, schedule: Q04DX003 (ip), vehicle: saline with Tween-80
  T/C: 154 % of control
dose: 6.25 mg/kg/injection, schedule: Q01DX009 (ip), vehicle: saline with Tween-80
  T/C: 118 % of control
dose: 6.25 mg/kg/injection, schedule: Q04DX003 (ip), vehicle: saline with Tween-80
  T/C: 163 % of control
dose: 12.5 mg/kg/injection, schedule: Q01DX009 (ip), vehicle: saline with Tween-80
  T/C: 122 % of control
dose: 12.5 mg/kg/injection, schedule: Q04DX003 (ip), vehicle: saline with Tween-80
  T/C: 190 % of control
dose: 25.0 mg/kg/injection, schedule: Q01DX009 (ip), vehicle: saline with Tween-80
  T/C: 163 % of control and 227 % of control
dose: 25.0 mg/kg/injection, schedule: Q04DX003 (ip), vehicle: saline with Tween-80
  T/C: 181 % of control
[10]
  T/C: 95 % of control
dose: 50.0 mg/kg/injection, schedule: Q04DX003 (ip), vehicle: saline with Tween-80
  T/C: 263 % of control
[7]
  T/C: 222 % of control and 231 % of control

## CCCN1C(=O)C2C3C=CC(C2C1=O)C1C2C(=O)N(CCC)C(=O)C2C31 (stereo not given)
dose: 100.0 mg/kg/injection, schedule: Q01DX001 (ip), vehicle: saline with Tween-80
  T/C: 92 % of control
dose: 200.0 mg/kg/injection, schedule: Q01DX001 (ip), vehicle: saline with Tween-80
  T/C: 96 % of control
dose: 400.0 mg/kg/injection, schedule: Q01DX001 (ip), vehicle: saline with Tween-80
  T/C: 101 % of control

## Cc1cc2[nH]c(Cl)c(/C=N/NC(N)=S)c2cc1O
dose: 100.0 mg/kg/injection, schedule: Q01DX001 (ip), vehicle: Klucel (hydroxypropylcellulose) (HPC)
  T/C: 99 % of control
dose: 200.0 mg/kg/injection, schedule: Q01DX001 (ip), vehicle: Klucel (hydroxypropylcellulose) (HPC)
  T/C: 99 % of control
dose: 400.0 mg/kg/injection, schedule: Q01DX001 (ip), vehicle: Klucel (hydroxypropylcellulose) (HPC)
  T/C: 97 % of control

## CCCCCCC[CH2][Sn]([Cl])([CH2]CCCCCCC)[O][Sn]([CH2]CCCCCCC)([CH2]CCCCCCC)[O]C
dose: 100.0 mg/kg/injection, schedule: Q04DX003 (ip), vehicle: saline
  T/C: 101 % of control
dose: 200.0 mg/kg/injection, schedule: Q04DX003 (ip), vehicle: saline
  T/C: 96 % of control
dose: 400.0 mg/kg/injection, schedule: Q04DX003 (ip), vehicle: saline
  T/C: 98 % of control

## Cc1cccc(NN=O)n1
dose: 1.5 mg/kg/injection, schedule: Q01DX009 (ip), vehicle: water
  T/C: 98 % of control
dose: 1.56 mg/kg/injection, schedule: Q01DX009 (ip), vehicle: water
  T/C: 99 % of control
dose: 3.0 mg/kg/injection, schedule: Q01DX009 (ip), vehicle: water
  T/C: 107 % of control
dose: 3.12 mg/kg/injection, schedule: Q01DX009 (ip), vehicle: water
  T/C: 115 % of control
dose: 6.25 mg/kg/injection, schedule: Q01DX009 (ip), vehicle: water
  T/C: 120 % of control
dose: 25.0 mg/kg/injection, schedule: Q01DX009 (ip), vehicle: water
  T/C: 163 % of control

## O=C(N/C(=C\c1ccccc1)C(=O)N1CCN(c2ccccc2)CC1)c1ccccc1
dose: 50.0 mg/kg/injection, schedule: Q01DX005 (ip), vehicle: saline with Tween-80
  T/C: 98 % of control
dose: 100.0 mg/kg/injection, schedule: Q01DX005 (ip), vehicle: saline with Tween-80
  T/C: 98 % of control
dose: 200.0 mg/kg/injection, schedule: Q01DX005 (ip), vehicle: saline with Tween-80
  T/C: 86 % of control

## OCCC(N1CCOCC1)C(O)(c1ccccc1)c1ccccc1 (stereo not given)
dose: 60.0 mg/kg/injection, schedule: Q01DX005 (ip), vehicle: saline with Tween-80
  T/C: 93 % of control
dose: 120.0 mg/kg/injection, schedule: Q01DX005 (ip), vehicle: saline with Tween-80
  T/C: 93 % of control
dose: 240.0 mg/kg/injection, schedule: Q01DX005 (ip), vehicle: saline with Tween-80
  T/C: 97 % of control

## Nc1ccc(S(=O)(=O)CCCl)cc1
dose: 12.5 mg/kg/injection, schedule: Q04DX003 (ip), vehicle: Klucel (hydroxypropylcellulose) (HPC)
  T/C: 96 % of control
dose: 25.0 mg/kg/injection, schedule: Q04DX003 (ip), vehicle: Klucel (hydroxypropylcellulose) (HPC)
  T/C: 102 % of control
dose: 50.0 mg/kg/injection, schedule: Q04DX003 (ip), vehicle: Klucel (hydroxypropylcellulose) (HPC)
  T/C: 105 % of control
dose: 100.0 mg/kg/injection, schedule: Q04DX003 (ip), vehicle: Klucel (hydroxypropylcellulose) (HPC)
  T/C: 107 % of control
dose: 200.0 mg/kg/injection, schedule: Q04DX003 (ip), vehicle: Klucel (hydroxypropylcellulose) (HPC)
  T/C: 112 % of control

## COc1ccc2nc3ccccc3c(NCCCCCCNc3c4ccccc4nc4ccc(OC)cc34)c2c1
dose: 0.62 mg/kg/injection, schedule: Q## X009 (ip), vehicle: lactic acid
  T/C: 108 % of control
dose: 0.63 mg/kg/injection, schedule: Q01DX009 (ip), vehicle: other
  T/C: 100 % of control
dose: 1.25 mg/kg/injection, schedule: Q01DX009 (ip), vehicle: other
  T/C: 107 % of control
dose: 1.25 mg/kg/injection, schedule: Q## X009 (ip), vehicle: lactic acid
  T/C: 111 % of control
dose: 2.5 mg/kg/injection, schedule: Q01DX009 (ip), vehicle: other
  T/C: 100 % of control
dose: 2.5 mg/kg/injection, schedule: Q## X009 (ip), vehicle: lactic acid
  T/C: 119 % of control
dose: 3.75 mg/kg/injection, schedule: Q01DX009 (ip), vehicle: other
  T/C: 109 % of control
dose: 5.0 mg/kg/injection, schedule: Q01DX009 (ip), vehicle: other
  T/C: 116 % of control
dose: 5.0 mg/kg/injection, schedule: Q## X009 (ip), vehicle: lactic acid
  T/C: 113 % of control

## O=C(NC1CCCCC1)C(=O)c1cc(Cl)c(Cl)c(Cl)c1Cl
[10]
  T/C: 106 % of control
dose: 100.0 mg/kg/injection, schedule: Q01DX009 (ip), vehicle: saline with Tween-80
  T/C: 114 % of control
dose: 200.0 mg/kg/injection, schedule: Q01DX009 (ip), vehicle: saline with Tween-80
  T/C: 103 % of control

## Clc1nn2nnnc2c2ccccc12
dose: 5.0 mg/kg/injection, schedule: Q01DX009 (ip), vehicle: saline
  T/C: 100 % of control and 96 % of control
dose: 10.0 mg/kg/injection, schedule: Q01DX009 (ip), vehicle: saline
  T/C: 95 % of control and 97 % of control
dose: 20.0 mg/kg/injection, schedule: Q01DX009 (ip), vehicle: saline
  T/C: 89 % of control and 94 % of control
dose: 40.0 mg/kg/injection, schedule: Q01DX009 (ip), vehicle: saline
  T/C: 100 % of control and 91 % of control
